Source: US20160115540A1, “PRODRUGS AND DRUGS” (Biogen MA Inc., priority 2013, published 2016)
Where a name gives a salt, the structure may show the parent alone.

Tested on: spleen
Assay: Transcriptional profiling, multi-dosing regimen, naïve mice: spleen
Format: in vivo
Conditions: for Number of differentially expressed genes identified: Spleen: Table 13: Naïve, Single Dose (so in the source), 12 h after last dosing
Experimental: In vivo, DMF is rapidly metabolized to monomethyl fumarate (MMF). […] Animals were exposed to CO2 and whole blood collected via cardiac puncture. Two 100 μl aliquots of whole blood were collected in 1.5 mL microcentrifuge tubes and snap frozen in liquid nitrogen. Peripheral (liver, spleen, kidney and jejunum) and CNS brain (cerebellum, hippocampus, striatum and cortex) tissues were harvested and snap frozen in liquid nitrogen, with special care taken to collect tissues of similar size and from the same location. All samples were stored at -80° C. until RNA extraction was conducted. For RNA preparation, frozen tissues were placed in 2 mL RNAse-free 96-well blocks with 1.5 mL QIAzol Lysis Reagent (QIAgen) and a 3.2 mm stainless steel bead (BioSpec Products, Bartlesville, Okla.). Tissues were disrupted for four cycles of 45 seconds in a Mini-Beadbeater (Biospec Products). RNA was extracted in chloroform and the aqueous phase was mixed with an equal volume of 70% ethanol. Extracted RNA was applied to RNeasy 96 plates and purified by the spin method according to the manufacturer's protocol (RNeasy 96 Universal Tissue Protocol, QIAgen, Hilden Germany). […] Two micrograms of biotin labeled […] probe were hybridized to Affymetrix GeneChip Affymetrix HT_MG-430_PM plate arrays with modified conditions as described in […] et al. Washing and staining of the hybridized arrays were completed as described in the GeneChip Expression analysis technical manual for HT plate arrays using the Genechip® Array Station (Affymetrix, Santa Clara, Calif.) with modifications as described in […] et al. The processed GeneChip® plate arrays were scanned using GeneTitan scanner (Affymetrix, Santa Clara, Calif.). Affymetrix scans were subject to quality control (QC) measures. These tests included a visual inspection of the distribution of raw signal intensities and an assessment of RNA degradation, relative log expression (RLE), and normalized unsealed standard error (NUSE). All sample scans that passed these QC metrics were included in the analysis. All CEL files were subjected to GC-content-based Robust Multi-array Average (GCRMA) normalization (version 2.20.0) (Irizarry R A, et al. Nucleic Acids Res 2003; 31:e15; Li C, et al. […] Stat Appl Genet Mol Biol 2004; 3:Article3). […] Springer Science+Business Media 2005). Changes in gene expression were studied by applying a linear modeling approach to fit gene expression levels according to the defined groups of samples (e.g. DMF-, MMF-, and Vehicle-treated animals) and Bayesian posterior error analysis as implemented by Smyth (Smyth G K. Stat Appl Genet Mol Biol 2004; 3:Article3). The comparisons considered included: DMF-vs-MMF, DMF-vs-Vehicle, and MMF-vs-Vehicle. […] Very few DEGs are observed in blood and tissues derived from the central nervous system (brain, cerebellum, cortex, striatum, and spinal cord).

[1] = SPLEEN, 100MMF-vs-Veh, naïve multidose
[2] = SPLEEN, 100DMF-vs-100MMF, naïve multidose
[3] = SPLEEN, 100DMF-vs-Veh, naïve multidose

SMILES: COC(=O)/C=C/C(=O)O [MMF, monomethyl fumarate]
- FC 4931431B13Rik (1430416_PM_at) [1]: −1.94
- FC 5430404G13Rik (1453540_PM_at) [1]: −1.55
- FC 5730403M16Rik (1434343_PM_at) [1]: 1.51
- FC Ccdc80 (1424187_PM_at) [1]: −1.64
- FC Ccl3 (1419561_PM_at) [1]: −1.82
- FC Ccr3 (1422957_PM_at) [1]: −2.37
- FC Cd300ld (1424832_PM_at) [1]: −1.85
- FC Clec4a2 (1422013_PM_at) [1]: −1.50
- FC Clec4a2 (1425406_PM_at) [1]: −1.64
- FC Clec4a3 (1429954_PM_at) [1]: −1.58
- FC Clec4n (1425951_PM_a_at) [1]: −1.81
- FC Csmd3 (1438272_PM_at) [1]: −1.80
- FC Defb1 (1419491_PM_at) [1]: 1.55
- FC Dmd (1417307_PM_at) [1]: −1.56
- FC Ear3 (1422412_PM_x_at) [1]: −1.73
- FC Emr4 (1424998_PM_at) [1]: −1.75
- FC Fam63a (1438321_PM_x_at) [1]: 1.54
- FC Fcgr1 (1417876_PM_at) [1]: −1.84
- FC Fgfrl1 /// LOC100046239 (1447878_PM_s_at) [1]: 1.53
- FC Gzma (1417898_PM_a_at) [1]: −1.64
- FC Hpgds (1421492_PM_at) [1]: −1.55
- FC Hs6st2 (1450047_PM_at) [1]: −1.75
- FC Iigp1 (1419043_PM_a_at) [1]: −1.72
- FC Lrp4 (1426288_PM_at) [1]: −1.51
- FC Lrrc50 (1421974_PM_at) [1]: 1.53
- FC Niacr1 (1419721_PM_at) [1]: −1.91
- FC Ptplad2 (1450967_PM_at) [1]: −1.55
- FC Rab31 (1431691_PM_a_at) [1]: −1.62
- FC Rnf144b (1425282_PM_at) [1]: −1.71
- FC Stfa2l1 (1442339_PM_at) [1]: −2.07
- FC Stx1a (1437390_PM_x_at) [1]: 1.53
- FC Tmem26 (1434583_PM_at) [1]: −1.67
- FC Ubn2 (1430056_PM_at) [1]: 1.64
- FC Ucp2 (1444566_PM_at) [1]: 1.54
- FC Vnn3 (1420723_PM_at) [1]: −1.59
- FC probe 1429277_PM_at (no gene symbol) [1]: −1.60
- FC probe 1431225_PM_at (no gene symbol) [1]: 1.58
- FC probe 1439831_PM_at (no gene symbol) [1]: −1.51
- FC probe 1442323_PM_at (no gene symbol) [1]: 1.51
- FC probe 1447204_PM_at (no gene symbol) [1]: −1.95
- FC probe 1449653_PM_at (no gene symbol) [1]: −1.57
- FC probe 1457306_PM_at (no gene symbol) [1]: 2.12
- Number of differentially expressed genes identified: Spleen (90 mpk MMF-vs-Vehicle): 42

SMILES: COC(=O)/C=C/C(=O)OC [DMF, dimethyl fumarate]
- FC 4931431B13Rik (1430416_PM_at) [2]: 2.18
- FC AU015536 (1445025_PM_at) [2]: 1.55
- FC Adap2 (1425639_PM_at) [2]: 1.60
- FC Agtr1a (1436739_PM_at) [2]: 1.61
- FC Ano1 (1426571_PM_at) [2]: 1.70
- FC Ano1 (1459713_PM_s_at) [2]: 1.55
- FC Apoc1 (1417561_PM_at) [2]: 1.74
- FC Ccbe1 (1439327_PM_at) [2]: 2.07
- FC Ccdc80 (1424187_PM_at) [2]: 1.74
- FC Ccl3 (1419561_PM_at) [2]: 1.81
- FC Ccl6 (1420249_PM_s_at) [2]: 1.88
- FC Ccr3 (1422957_PM_at) [2]: 2.25
- FC Cd300ld (1424832_PM_at) [2]: 1.82
- FC Cdr2l (1445027_PM_at) [2]: 1.57
- FC Clec4n (1419627_PM_s_at) [2]: 1.52
- FC Clec4n (1425951_PM_a_at) [2]: 1.83
- FC Dmd (1417307_PM_at) [2]: 1.59
- FC Ear1 (1421802_PM_at) [2]: 3.89
- FC Ear1 /// Ear12 /// Ear2 /// Ear3 (1422411_PM_s_at) [2]: 1.79
- FC Ear2 (1449846_PM_at) [2]: 1.51
- FC Ear3 (1422412_PM_x_at) [2]: 1.80
- FC Emr4 (1424998_PM_at) [2]: 1.77
- FC Ercc61 (1424766_PM_at) [2]: −1.66
- FC Fam63a (1438321_PM_x_at) [2]: −1.52
- FC Fcgr1 (1417876_PM_at) [2]: 1.61
- FC Fcna (1418243_PM_at) [2]: 1.57
- FC Hs6st2 (1450047_PM_at) [2]: 1.64
- FC Kcnj16 (1435094_PM_at) [2]: 1.69
- FC Klrb1a (1450296_PM_at) [2]: 1.78
- FC Lphn3 (1458742_PM_at) [2]: 1.60
- FC Ncr1 (1422089_PM_at) [2]: 1.54
- FC Niacr1 (1419721_PM_at) [2]: 1.65
- FC P2ry12 (1431724_PM_a_at) [2]: 1.66
- FC Pla2g7 (1430700_PM_a_at) [2]: 1.51
- FC Ptplad2 (1450967_PM_at) [2]: 1.56
- FC Rab31 (1431691_PM_a_at) [2]: 1.73
- FC Rnf144b (1425282_PM_at) [2]: 1.86
- FC Skiv2l (1422584_PM_at) [2]: −1.52
- FC St18 (1455123_PM_at) [2]: 1.75
- FC Sult1a1 (1427345_PM_a_at) [2]: 1.51
- FC Tmem26 (1434583_PM_at) [2]: 1.57
- FC Ubn2 (1430056_PM_at) [2]: −1.62
- FC Vcam1 (1415989_PM_at) [2]: 1.50
- FC Vcam1 (1436003_PM_at) [2]: 1.62
- FC Vcam1 (1451314_PM_a_at) [2]: 1.61
- FC Vnn3 (1420723_PM_at) [2]: 1.54
- FC probe 1420250_PM_at (no gene symbol) [2]: 1.50
- FC probe 1421534_PM_at (no gene symbol) [2]: 1.57
- FC probe 1429277_PM_at (no gene symbol) [2]: 1.59
- FC probe 1442323_PM_at (no gene symbol) [2]: −1.55
- FC probe 1444189_PM_at (no gene symbol) [2]: 1.71
- FC probe 1445379_PM_at (no gene symbol) [2]: −1.51
- FC Aox1 (1419435_PM_at) [3]: 1.66
- FC Gsta3 (1423436_PM_at) [3]: 1.86
- FC Gstm1 (1416416_PM_x_at) [3]: 1.57
- FC Gstm1 (1448330_PM_at) [3]: 1.61
- Number of differentially expressed genes identified: Spleen (100 mpk DMF-vs-90 mpk MMF): 52
- Number of differentially expressed genes identified: Spleen (100 mpk DMF-vs-Vehicle): 4
- CCR3, Klrb1c, NCR1 and CCL3L1 expression (downstream of IL2), DMF vs MMF (spleen, multi-dosed naïve mice): up-regulated
- FCGR1A, ST18, CCL3L1 and VCAM1 expression (downstream of NFkB), DMF vs MMF (spleen, multi-dosed naïve mice): up-regulated
